Measured values reported in patent publication US7901893B2, “NPC1L1 (NPC3) and methods of identifying ligands thereof” (Merck Sharp & Dohme Corp., priority 2004, dated 2011).
“Also recorded” adds a separate entry of the source. Like-named read-outs stand apart in the source and are kept apart here.

Key:
cholesterol absorption [1] = assay: Acute rat cholesterol absorption study; format: in vivo; conditions: rat acute cholesterol absorption model
Description: To determine if in vitro binding activity is predictive of in vivo efficacy, the enantiomer of ezetimibe glucuronide and several close structural analogues of ezetimibe glucuronide that were tested in the rat membrane binding assay were tested in an acute rat cholesterol absorption study as described in Examples 23-26. […] For the other analogs, the same rank order of potency is observed in the in vitro and in vivo assays, further evidence that the observed binding is due to the target of ezetimibe.

[2] = system: membrane preparations from cells expressing NPC1L1; assay: Preliminary binding studies with HEK-293 membrane preparations
Description: Transient expression of NPC1L1. Plasmid pCR3.1 expressing rat NPC1L1 (Genbank AY437867) or human NPC1L1 (Genbank AY437865) were prepared using standard molecular biology protocols. HEK-293 cells (ATCC) were seeded at 10×10^6 cells per T-225 flask (Corning) in DMEM containing 10% fetal calf serum, 4.5 g/L D-glucose and L-glutamine, 18 hours prior to transfection. They were transiently transfected with 25 μg of DNA using Fugene transfection reagent (Roche Biochemical) at a ratio of 6:1 Fugene:DNA. Following transfection, the cells were incubated at 37° C. and 5% CO2 for 48 hours, and then harvested using PBS based cell dissociation buffer (Gibco), pelleted at 500×g, snap frozen on dry ice, and stored at −80° C.
Membrane preparation from HEK-293 cells. Membranes were prepared by resuspending the frozen cell pellets in ten volumes of 20 mM HEPES/Tris buffer at pH 7.40 containing 8% sucrose, and sonicating the suspensions with a probe sonicator on ice until most of the cells were lysed. […]
Cell lysates from HEK-293 cells expressing NPC1L1 (Lanes 1 and 3 of Panel 1 FIG. 13) and wild-type cells (Lanes 2 and 4 of Panel 1 FIG. 13) were analyzed by gel electrophoresis and Western blot with an anti-NPC1L1 antibody A1801. […]

cholesterol absorption [3] = conditions: rat; cited from earlier work
cholesterol absorption [4] = conditions: cited from earlier work

## O=C(O)C1OC(Oc2ccc(C3C(CCC(O)c4ccc(F)cc4)C(=O)N3c3ccc(F)cc3)cc2)C(O)C(O)C1O (single isomer, unassigned) [Compound 4]
Cholesterol absorption [1]
  activity in vivo: inactive; also recorded: lack of activity

## O=C(O)[C@H]1O[C@@H](Oc2ccc([C@@H]3[C@@H](CC[C@H](O)c4ccc(F)cc4)C(=O)N3c3ccc(F)cc3)cc2)[C@H](O)[C@@H](O)[C@@H]1O [Compound 1, Ezetimibe glucuronide]
[2]
  binding to membrane preparations from cells expressing NPC1L1: specific binding
  binding to membranes from mock transfected cells: no specific binding

## O=C1[C@H](CC[C@H](O)c2ccc(F)cc2)[C@@H](c2ccc(O)cc2)N1c1ccc(F)cc1 [ezetimibe]
Cholesterol absorption [3]
  potency (ED50) in vivo: 0.03 mpk
Cholesterol absorption [4]; monkey
  ED50: 0.5 µg/kg
Cholesterol absorption [4]; rhesus
  potency (ED50) in vivo: 0.0005 mpk
